# pIC50: −log10 of the molar value.
# Target: Acetylcholinesterase (Electrophorus electricus, UniProt O42275)
# Sequence (O42275 whole entry): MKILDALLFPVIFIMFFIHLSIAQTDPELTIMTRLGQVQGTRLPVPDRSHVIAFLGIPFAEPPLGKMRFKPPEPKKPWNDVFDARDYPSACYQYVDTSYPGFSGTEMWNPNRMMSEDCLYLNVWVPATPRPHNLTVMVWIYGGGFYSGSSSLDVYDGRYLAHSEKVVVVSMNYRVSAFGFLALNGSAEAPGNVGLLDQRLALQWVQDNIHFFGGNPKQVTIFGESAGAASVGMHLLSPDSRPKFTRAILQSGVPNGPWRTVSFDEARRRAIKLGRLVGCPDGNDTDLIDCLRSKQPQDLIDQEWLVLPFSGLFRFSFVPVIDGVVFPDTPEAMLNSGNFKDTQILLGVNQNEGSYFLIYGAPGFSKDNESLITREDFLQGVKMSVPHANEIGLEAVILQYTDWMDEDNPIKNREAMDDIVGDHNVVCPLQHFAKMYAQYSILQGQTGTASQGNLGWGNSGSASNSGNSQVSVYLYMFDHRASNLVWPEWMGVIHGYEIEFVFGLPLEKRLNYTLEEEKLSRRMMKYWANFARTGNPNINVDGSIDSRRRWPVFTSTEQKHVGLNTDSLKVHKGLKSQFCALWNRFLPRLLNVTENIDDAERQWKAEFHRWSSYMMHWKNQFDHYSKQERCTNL
# Description: Inhibition of Electrophorus electricus AChE after 120 secs by Ellman spectroscopic method
row,Structure (SMILES),pIC50
1,CC(C)=CCC/C(C)=C/Cc1c(O)c(C(=O)CC(C)C)c2oc(=O)cc(-c3ccccc3)c2c1O,< 4.70
2,CCC(C)C(=O)c1c(O)c(C/C=C(\C)CCC=C(C)C)c(O)c2c(-c3ccccc3)cc(=O)oc12 (centres undefined),5.51
3,CC(C)CC(=O)c1c(O)c2c(c3c(-c4ccccc4)cc(=O)oc13)OC(C(C)(C)O)C2 (centres undefined),< 4.70
4,CC(C)CC(=O)c1c(O)c2c(c3c(-c4ccccc4)cc(=O)oc13)OC(C)(C)C=C2 [ISOMAMMEIGIN],< 4.70
5,CC(C)=CCc1c(O)c(C(=O)CC(C)C)c2oc(=O)cc(-c3ccccc3)c2c1O [ISOMAMMEISIN],< 4.70
6,CC(C)=CCCC1(C)C=Cc2c(O)c(C(=O)CC(C)C)c3oc(=O)cc(-c4ccccc4)c3c2O1 (centres undefined) [MESUAGENIN A],5.97
7,CCC(C)C(=O)c1c(O)c2c(c3c(-c4ccccc4)cc(=O)oc13)OC(C)(CCC=C(C)C)C=C2 (centres undefined) [MESUAGENIN B],6.15
8,CC(C)=CCC/C(C)=C/Cc1c(O)c(C(=O)C(C)C)c2oc(=O)cc(-c3ccccc3)c2c1O [MESUAGENIN C],< 4.70
9,CC(C)CCC(C)(O)C1(C)Cc2c(O)c(C(=O)CC(C)C)c3oc(=O)cc(-c4ccccc4)c3c2O1 (centres undefined) [MESUAGENIN D],5.06
